Reference: patent US20030092684A1, “Compositions and methods for treating hemorrhagic virus infections and other disorders” (priority 1999, published 2003)

What was measured:
[1] = test system: Dengue virus type 2; assay: Dengue virus infection treated with tetracycline compounds (Example 4): mortality; type: in vivo, BALB/c mice; conditions: for % (survival): 20 mice, 20 mg/kg
[2] = test system: TNF-α and IL-1β; assay: Serum TNF and IL-1 in Dengue infected mice (Example 4); type: in vivo, BALB/c mice; conditions: for level of the cytokines in the serum versus control A2 group: 20 mg/kg twice per day from day -3 until day 8
[3] = test system: IL-1RA and sTNFrl; assay: IL-1RA and sTNFrl in human donor serum after oral antibiotic stimulation; type: in vivo
[4] = test system: Mononuclear human cells; assay: In vitro activation of mononuclear human cells by antibiotics: IL-1RA and sTNFrI production; type: cell-based; conditions: 0.06 mg/ml, activation for 2 hours
[5] = 20 mg/kg orally twice per day from day -3 until day 8
[6] = 20 mg/kg orally twice per day from day -3 until day 8, listed as vibromycine
[7] = day 0, 20 mg/kg orally twice per day from day -3 until day 8
[8] = day 1, 20 mg/kg orally twice per day from day -3 until day 8
[9] = day 3, 20 mg/kg orally twice per day from day -3 until day 8
[10] = day 5, 20 mg/kg orally twice per day from day -3 until day 8
[11] = day 6, 20 mg/kg orally twice per day from day -3 until day 8
[12] = day 7, 20 mg/kg orally twice per day from day -3 until day 8
[13] = day 8, 20 mg/kg orally twice per day from day -3 until day 8
[14] = day 12, 20 mg/kg orally twice per day from day -3 until day 8
[15] = day -1, 20 mg/kg orally twice per day from day -3 until day 8
[16] = 150 mg orally twice a day, blood taken on the second and third day after beginning
[17] = after stimulation, 2 persons, on the 24th hour
[18] = 20 mg/kg intramuscularly twice per day from day -3 until day 8
[19] = 20 mg/kg intramuscularly twice per day from day -3 until day 8, listed as terramycine
[20] = day 0, 20 mg/kg intramuscularly twice per day from day -3 until day 8
[21] = day 1, 20 mg/kg intramuscularly twice per day from day -3 until day 8
[22] = day 3, 20 mg/kg intramuscularly twice per day from day -3 until day 8
[23] = day 5, 20 mg/kg intramuscularly twice per day from day -3 until day 8
[24] = day 6, 20 mg/kg intramuscularly twice per day from day -3 until day 8
[25] = day 7, 20 mg/kg intramuscularly twice per day from day -3 until day 8
[26] = day 8, 20 mg/kg intramuscularly twice per day from day -3 until day 8
[27] = day 12, 20 mg/kg intramuscularly twice per day from day -3 until day 8
[28] = day -1, 20 mg/kg intramuscularly twice per day from day -3 until day 8

`CC1c2cccc(O)c2C(=O)C2=C(O)C3(O)C(=O)C(C(N)=O)=C(O)C(N(C)C)C3C(O)C21` (stereo not shown) [Vybromycine] was tested, and the m.t.d. [1, 5] was “m.t.d. = 6.7 days”, the m.t.d. [1, 6] was 6.7 days and the “% (survival)” value [1, 5] was “% (survival) 20”. For the same compound, the “% (survival)” value [1, 6] was 20%, the Survival/total amount [1, 7] was 20/20 and the Survival/total amount [1, 8] was 20/20. The Survival/total amount [1, 9] was 20/20, the Survival/total amount [1, 10] was 19/20 and the Survival/total amount [1, 11] was 15/20. For the same compound, the Survival/total amount [1, 12] was 5/20, the Survival/total amount [1, 13] was 4/20 and the Survival/total amount [1, 14] was 4/20. The Survival/total amount [1, 15] was 20/20, the “increase of the concentration of TNF” value ([2]; 20 mg/kg orally twice per day) was 3 fold and the “level of the cytokines in the serum versus control A2 group” value [2] was “statistically lower”. For the same compound, the “increase of the concentration of IL-1” value ([2]; by day 6 of the infection, 20 mg/kg orally twice per day) was 12 fold, the IL-1 [2, 7] was 7.0 pg/mL and the TNF [2, 7] was 18.8 pg/mL. The IL-1 [2, 8] was 11.6 pg/mL, the TNF [2, 8] was 12.6 pg/mL and the IL-1 [2, 9] was 60.0 pg/mL. For the same compound, the TNF [2, 9] was 10.8 pg/mL, the IL-1 [2, 10] was 62.0 pg/mL and the TNF [2, 10] was 16.0 pg/mL. For the same compound, the IL-1 [2, 11] was 84.4 pg/mL, the TNF [2, 11] was 34.0 pg/mL and the IL-1 [2, 12] was 64.0 pg/mL. For the same compound, the TNF [2, 12] was 30.6 pg/mL, the IL-1 [2, 13] was 30.0 pg/mL and the TNF [2, 13] was 26.0 pg/mL. It also gave an IL-1 [2, 14] of 17.8 pg/mL, a TNF [2, 14] of 22.2 pg/mL and an IL-1 [2, 15] of 7.0 pg/mL. The TNF [2, 15] was 20.4 pg/mL, the “concentration in the human serum of IL-1RA” value [3, 16] was 184 pg/mL and the “concentration in the human serum of sTNFrl” value [3, 16] was 950 pg/mL. For the same compound, the “IL-1RA in the donor serum” value [3, 17] was 126.8 ± 6.8 pg/mL, the “sTNFrl in the donor serum” value [3, 17] was 970 ± 28.6 pg/mL and the “IL-1RA in the donor serum” value ([3]; before the stimulation) was 20 ± 2.2 pg/mL. For the same compound, the “sTNFrl in the donor serum” value ([3]; before the stimulation) was 22 ± 3.4 pg/mL.

In the case of `CN(C)[C@@H]1C(O)=C(C(N)=O)C(=O)[C@@]2(O)C(O)=C3C(=O)c4c(O)cccc4[C@@](C)(O)[C@H]3[C@H](O)[C@@H]12` [Terramycine], the IL-1RA ([4]; 0 hours) is reported as 28 + 1.6 pg/ml, the sTNFrI ([4]; 0 hours) is reported as 18 + 1.4 pg/ml and the IL-1RA ([4]; 3 hours) is reported as 93 + 6.2 pg/ml. For the same compound, the sTNFrI ([4]; 3 hours) was 313 + 10.4 pg/ml, the IL-1RA ([4]; 6 hours) was 220 + 9.4 pg/ml and the sTNFrI ([4]; 6 hours) was 224 + 9.2 pg/ml. For the same compound, the IL-1RA ([4]; 24 hours) was 185 + 8.6 pg/ml, the sTNFrI ([4]; 24 hours) was 264 + 9.6 pg/ml and the m.t.d. [1, 18] was “m.t.d. = 6.53 days”. The m.t.d. [1, 19] was 6.53 days, the “% (survival)” value [1, 18] was “% (survival) 15” and the “% (survival)” value [1, 19] was 15%. For the same compound, the Survival/total amount [1, 20] was 20/20, the Survival/total amount [1, 21] was 20/20 and the Survival/total amount [1, 22] was 20/20. For the same compound, the Survival/total amount [1, 23] was 19/20, the Survival/total amount [1, 24] was 11/20 and the Survival/total amount [1, 25] was 6/20. For the same compound, the Survival/total amount [1, 26] was 3/20, the Survival/total amount [1, 27] was 3/20 and the Survival/total amount [1, 28] was 20/20. For the same compound, the “level of the cytokines in the serum versus control A2 group” value [2] was “statistically lower”, the “increase of the concentration of IL-1” value ([2]; by day 3 of the disease, stayed until day 7, 20 mg/kg intramuscularly twice per day) was 16 fold and the “increase of the concentration of TNF” value ([2]; by day 6 of the disease, 20 mg/kg intramuscularly twice per day) was 2 fold. For the same compound, the IL-1 [2, 20] was 7.0 pg/mL, the TNF [2, 20] was 17.0 pg/mL and the IL-1 [2, 21] was 21.8 pg/mL. The TNF [2, 21] was 15.2 pg/mL, the IL-1 [2, 22] was 112.0 pg/mL and the TNF [2, 22] was 25.6 pg/mL. It also gave an IL-1 [2, 23] of 84.0 pg/mL, a TNF [2, 23] of 26.0 pg/mL and an IL-1 [2, 24] of 80.0 pg/mL. The TNF [2, 24] was 36.2 pg/mL, the IL-1 [2, 25] was 76.0 pg/mL and the TNF [2, 25] was 28.0 pg/mL. For the same compound, the IL-1 [2, 26] was 42.0 pg/mL, the TNF [2, 26] was 20.0 pg/mL and the IL-1 [2, 27] was 16.0 pg/mL. It also gave a TNF [2, 27] of 18.0 pg/mL, an IL-1 [2, 28] of 7.2 pg/mL and a TNF [2, 28] of 18.8 pg/mL.
